The record followed here is patent US10206394B2, “Herbicidal compounds” (Syngenta Participations AG, priority 2014, dated 2019).

Holding throughout (assay): Glasshouse assay for herbicidal activity (pre- and post-emergence), percentage phytotoxicity
Common to all, as to format: in vivo

Test [1] deals with Alopecurus myosuroides (ALOMY). Conditions: Alopecurus myosuroides, Rate 250 g/ha, 100%=total damage, 0%=no damage. Here is the method:
(§1) Test—Glasshouse Assay for Herbicidal Activity
(§2) Seeds of a variety of monocotyledonous and dicotyledonous test plants are sown in standard soil in pots. The plants are cultivated for one day (for pre-emergence (PRE)) or for about 12 days (for post-emergence (POST)) under controlled conditions in a glasshouse (warm climate species at 24/18° C., cool climate species at 20/16° C., both at day/night; 16 hours light; 65% humidity).
(§3) The test plants are then grown on, in a glasshouse (greenhouse) under controlled conditions (warm climate species at 24/18° C., cool climate species at 20/16° C., both at day/night; 16 hours light; 65% humidity) and are watered twice daily. 15 days after application of the test herbicide (15 DAA) (for post-emergence), and 20 days after application of the test herbicide (20 DAA) (for pre-emergence), the test plants are evaluated visually, and an assessed percentage phytotoxicity score is given for each herbicidal application on each plant species (with 100%=total damage to plant; 0%=no damage to plant).
(§4) The plant species tested are as follows: Alopecurus myosuroides (ALOMY), Avena fatua (AVEFA), Lolium perenne (LOLPE), Echinochloa crus-galli (ECHCG).

For test [2], the system named is Avena fatua (AVEFA). Conditions: Avena fatua, Rate 250 g/ha, 100%=total damage, 0%=no damage. On the procedure: as §1, §2, §3, §4
Test [3] relates to Lolium perenne (LOLPE). Conditions: Lolium perenne, Rate 250 g/ha, 100%=total damage, 0%=no damage. On the procedure:
as §1, §2, §3, §4

In test [4] the test system is Echinochloa crus-galli (ECHCG). To be noted: Echinochloa crus-galli, Rate 250 g/ha, 100%=total damage, 0%=no damage. On the procedure:
as §1, §2, §3, §4

[5] abbreviates: post-emergence, 360 h, post-emergence, assessed visually 15 DAA, read-out: Post-emergence herbicidal activity (percentage phytotoxicity) ALOMY POST.
Where [6] appears, read: pre-emergence, 480 h, pre-emergence, assessed visually 20 DAA, read-out: Pre-emergence herbicidal activity (percentage phytotoxicity) ALOMY PRE.
The mark [7] stands for this setting: post-emergence, 360 h, post-emergence, assessed visually 15 DAA, read-out: Post-emergence herbicidal activity (percentage phytotoxicity) AVEFA POST.
Where [8] appears, read: pre-emergence, 480 h, pre-emergence, assessed visually 20 DAA, read-out: Pre-emergence herbicidal activity (percentage phytotoxicity) AVEFA PRE.
The mark [9] stands for this setting: post-emergence, 360 h, post-emergence, assessed visually 15 DAA, read-out: Post-emergence herbicidal activity (percentage phytotoxicity) LOLPE POST.
Setting [10] is: pre-emergence, 480 h, pre-emergence, assessed visually 20 DAA, read-out: Pre-emergence herbicidal activity (percentage phytotoxicity) LOLPE PRE.
Where [11] appears, read: post-emergence, 360 h, post-emergence, assessed visually 15 DAA, read-out: Post-emergence herbicidal activity (percentage phytotoxicity) ECHCG POST.
[12] abbreviates: pre-emergence, 480 h, pre-emergence, assessed visually 20 DAA, read-out: Pre-emergence herbicidal activity (percentage phytotoxicity) ECHCG PRE.

Where two headings read alike, the source gives them in different places.

Turning to `Cc1cc(C)c(C2C(=O)CC(CC(=O)NCc3ccccc3C#N)C2=O)c(C)c1` (stereo not shown) [Compound A108], the pest or weed control at 250 g/ha in test [1] (setting [5]) stood at 0%; in test [1] (setting [6]) it was 0%; in test [2] (setting [7]), 60%; in test [2] (setting [8]) it was 0%; in test [3] (setting [9]) it was 60%; in test [3] (setting [10]), 80%. Moreover, the figures for the pest or weed control at 250 g/ha in test [4] (setting [11]) and in test [4] (setting [12]) were 20% and 30%, respectively.
As to `Cc1cc(C)c(C2C(=O)CC(CC(=O)NCc3ncc(C(F)(F)F)cc3Cl)C2=O)c(C)c1` (stereo not shown) [Compound A109], the pest or weed control at 250 g/ha in test [1] (setting [5]) was 90%; in test [1] (setting [6]), 90%; in test [2] (setting [7]) it was 80%; in test [2] (setting [8]), 50%; in test [3] (setting [9]), 80%; in test [3] (setting [10]) it was 90%. For the same compound, the pest or weed control at 250 g/ha in test [4] (setting [11]) and in test [4] (setting [12]) was 80% in each case.
For `Cc1cc(C)c(C2C(=O)CC(CC(=O)NCc3ccccc3F)C2=O)c(C)c1` (stereo not shown) [Compound A110], the pest or weed control at 250 g/ha in test [1] (setting [5]) amounted to 60%; in test [1] (setting [6]) it was 70%; in test [2] (setting [7]), 70%; in test [2] (setting [8]) it was 50%; in test [3] (setting [9]), 80%; in test [3] (setting [10]) it was 100%. The pest or weed control at 250 g/ha was found to be 80% in test [4] (setting [11]) and 90% in test [4] (setting [12]).
As to `C=CCCNC(=O)CC1CC(=O)C(c2c(C)cc(-c3ncc(Cl)cc3F)cc2C)C1=O` (stereo not shown) [Compound A111], the pest or weed control at 250 g/ha in test [1] (setting [5]) came to 100%; in test [1] (setting [6]) it was 90%; in test [2] (setting [7]), 100%; in test [2] (setting [8]) it was 90%; in test [3] (setting [9]), 100%; in test [3] (setting [10]) it was 100%. For the same compound, the pest or weed control at 250 g/ha in test [4] (setting [11]) and in test [4] (setting [12]) was 100% in each case.
With `COCC#CC(C)(C)NC(=O)CC1CC(=O)C(c2c(C)cc(-c3ncc(Cl)cc3F)cc2C)C1=O` (stereo not shown) [Compound A112], the pest or weed control at 250 g/ha in test [1] (setting [5]) was 90%; in test [1] (setting [6]), 80%; in test [2] (setting [7]), 100%; in test [2] (setting [8]), 90%; in test [3] (setting [9]), 100%; in test [3] (setting [10]), 100%. The pest or weed control at 250 g/ha in test [4] (setting [11]) and in test [4] (setting [12]) was 100% each time.
For the compound `Cc1cc(-c2ncc(Cl)cc2F)cc(C)c1C1C(=O)CC(CC(=O)NCc2ncc(C(F)(F)F)cc2Cl)C1=O` (stereo not shown) [Compound A113], the pest or weed control at 250 g/ha in test [1] (setting [5]) came out at 100%; in test [1] (setting [6]), 80%; in test [2] (setting [7]) it was 100%; in test [2] (setting [8]), 90%; in test [3] (setting [9]), 100%; in test [3] (setting [10]), 90%. Further, the pest or weed control at 250 g/ha in test [4] (setting [11]) and in test [4] (setting [12]) was 100% in each case.
Consider `Cc1cc(-c2ncc(Cl)cc2F)cc(C)c1C1C(=O)CC(CC(=O)NCc2ncccc2Cl)C1=O` (stereo not shown) [Compound A114], for which the pest or weed control at 250 g/ha in test [1] (setting [5]) was determined as 100%; in test [1] (setting [6]) it was 90%; in test [2] (setting [7]) it was 100%; in test [2] (setting [8]) it was 90%; in test [3] (setting [9]) it was 100%; in test [3] (setting [10]), 90%. In addition, the pest or weed control at 250 g/ha in test [4] (setting [11]) and in test [4] (setting [12]) was 100% each time.
As to `Cc1cc(-c2ncc(Cl)cc2F)cc(C)c1C1C(=O)CC(CC(=O)NCc2ccc(C(F)(F)F)nc2)C1=O` (stereo not shown) [Compound A115], the pest or weed control at 250 g/ha in test [1] (setting [5]) came to 100%; in test [1] (setting [6]), 90%; in test [2] (setting [7]), 100%; in test [2] (setting [8]) it was 90%; in test [3] (setting [9]), 100%; in test [3] (setting [10]), 90%. For the same compound, the pest or weed control at 250 g/ha in test [4] (setting [11]) was 100%; in test [4] (setting [12]), 90%.
